# Test system: Digitaria sanguinalis (DIGSA)
# Assay: Post-emergence herbicidal activity, glasshouse pot test
# Type: in vivo
# Details: Digitaria sanguinalis, rate 125 g/ha, evaluated after 14 or 15 days, read-out: Post-emergence activity, DIGSA (100=total damage to plant; 0=no damage to plant)
# Summary of the method: (§1)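 Plants sown in sterilised standard soil, grown 10 days in glasshouse, then sprayed with aqueous dilution of active ingredient formulated in acetone plus Emulsogen EL/N-methylpyrrolidone/dipropylene glycol monomethyl ether/X-77 solution. Damage scored visually 14 or 15 days after spraying, 0 (none) to 100 (total).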
row,SMILES,pest or weed control at 125 g/ha [%]
1,CCc1cc(C)cc(CC)c1C1=C(OS(C)(=O)=O)CC2(CCOCC2)CC1=O [Compound P24],0
2,CCc1cc(C)cc(CC)c1C1=C(OC(=O)Oc2ccccc2)CC2(CCOCC2)CC1=O [Compound P18],70
3,CCc1cc(C)cc(CC)c1C1=C(OC(=O)CC2CCCC2)CC2(CCOCC2)CC1=O [Compound P11],70
4,CCc1cc(C)cc(CC)c1C1=C(OC(C)=O)CC2(CCOCC2)CC1=O [Compound P1],50
5,CCc1cc(C)cc(CC)c1C1=C(OC(=O)Cc2ccc(F)cc2)CC2(CCOCC2)CC1=O [Compound P7],80
6,CCc1cc(C)cc(CC)c1C1=C(O)CC(CC(C)[S+]([O-])C(C)C)CC1=O (stereo not drawn) [Compound T55],80

# Test system: Setaria faberi (SETFA)
# Assay: as above
# Type: in vivo
# Details: Setaria faberi, rate 125 g/ha, evaluated after 14 or 15 days, read-out: Post-emergence activity, SETFA (100=total damage to plant; 0=no damage to plant)
# Summary of the method: as §1
row,SMILES,pest or weed control at 125 g/ha [%]
1,CCc1cc(C)cc(CC)c1C1=C(OS(C)(=O)=O)CC2(CCOCC2)CC1=O [Compound P24],0
2,CCc1cc(C)cc(CC)c1C1=C(OC(=O)Oc2ccccc2)CC2(CCOCC2)CC1=O [Compound P18],50
3,CCc1cc(C)cc(CC)c1C1=C(OC(=O)CC2CCCC2)CC2(CCOCC2)CC1=O [Compound P11],70
4,CCc1cc(C)cc(CC)c1C1=C(OC(C)=O)CC2(CCOCC2)CC1=O [Compound P1],30
5,CCc1cc(C)cc(CC)c1C1=C(OC(=O)Cc2ccc(F)cc2)CC2(CCOCC2)CC1=O [Compound P7],80
6,CCc1cc(C)cc(CC)c1C1=C(O)CC(CC(C)[S+]([O-])C(C)C)CC1=O (stereo not drawn) [Compound T55],60

# Test system: Avena fatua (AVEFA)
# Assay: as above
# Type: in vivo
# Details: Avena fatua, rate 125 g/ha, evaluated after 14 or 15 days, read-out: Post-emergence activity, AVEFA (100=total damage to plant; 0=no damage to plant)
# Summary of the method: as §1
row,SMILES,pest or weed control at 125 g/ha [%]
1,CCc1cc(C)cc(CC)c1C1=C(OS(C)(=O)=O)CC2(CCOCC2)CC1=O [Compound P24],0
2,CCc1cc(C)cc(CC)c1C1=C(OC(=O)Oc2ccccc2)CC2(CCOCC2)CC1=O [Compound P18],100
3,CCc1cc(C)cc(CC)c1C1=C(OC(=O)CC2CCCC2)CC2(CCOCC2)CC1=O [Compound P11],100
4,CCc1cc(C)cc(CC)c1C1=C(OC(C)=O)CC2(CCOCC2)CC1=O [Compound P1],60
5,CCc1cc(C)cc(CC)c1C1=C(OC(=O)Cc2ccc(F)cc2)CC2(CCOCC2)CC1=O [Compound P7],80
6,CCc1cc(C)cc(CC)c1C1=C(O)CC(CC(C)[S+]([O-])C(C)C)CC1=O (stereo not drawn) [Compound T55],80

# Test system: Echinochloa crus-galli (ECHCG)
# Assay: as above
# Type: in vivo
# Details: Echinochloa crus-galli, rate 125 g/ha, evaluated after 14 or 15 days, read-out: Post-emergence activity, ECHCG (100=total damage to plant; 0=no damage to plant)
# Summary of the method: as §1
row,SMILES,pest or weed control at 125 g/ha [%]
1,CCc1cc(C)cc(CC)c1C1=C(OS(C)(=O)=O)CC2(CCOCC2)CC1=O [Compound P24],0
2,CCc1cc(C)cc(CC)c1C1=C(OC(=O)Oc2ccccc2)CC2(CCOCC2)CC1=O [Compound P18],100
3,CCc1cc(C)cc(CC)c1C1=C(OC(=O)CC2CCCC2)CC2(CCOCC2)CC1=O [Compound P11],70
4,CCc1cc(C)cc(CC)c1C1=C(OC(C)=O)CC2(CCOCC2)CC1=O [Compound P1],50
5,CCc1cc(C)cc(CC)c1C1=C(OC(=O)Cc2ccc(F)cc2)CC2(CCOCC2)CC1=O [Compound P7],80
6,CCc1cc(C)cc(CC)c1C1=C(O)CC(CC(C)[S+]([O-])C(C)C)CC1=O (stereo not drawn) [Compound T55],90

# Test system: Alopecurus myosuroides (ALOMY)
# Assay: as above
# Type: in vivo
# Details: Alopecurus myosuroides, rate 125 g/ha, evaluated after 14 or 15 days, read-out: Post-emergence activity, ALOMY (100=total damage to plant; 0=no damage to plant)
# Summary of the method: as §1
row,SMILES,pest or weed control at 125 g/ha [%]
1,CCc1cc(C)cc(CC)c1C1=C(OS(C)(=O)=O)CC2(CCOCC2)CC1=O [Compound P24],0
2,CCc1cc(C)cc(CC)c1C1=C(OC(=O)Oc2ccccc2)CC2(CCOCC2)CC1=O [Compound P18],80
3,CCc1cc(C)cc(CC)c1C1=C(OC(=O)CC2CCCC2)CC2(CCOCC2)CC1=O [Compound P11],90
4,CCc1cc(C)cc(CC)c1C1=C(OC(C)=O)CC2(CCOCC2)CC1=O [Compound P1],50
5,CCc1cc(C)cc(CC)c1C1=C(OC(=O)Cc2ccc(F)cc2)CC2(CCOCC2)CC1=O [Compound P7],80
6,CCc1cc(C)cc(CC)c1C1=C(O)CC(CC(C)[S+]([O-])C(C)C)CC1=O (stereo not drawn) [Compound T55],90

# Test system: Lolium perenne (LOLPE)
# Assay: as above
# Type: in vivo
# Details: Lolium perenne, rate 125 g/ha, evaluated after 14 or 15 days, read-out: Post-emergence activity, LOLPE (100=total damage to plant; 0=no damage to plant)
# Summary of the method: as §1
row,SMILES,pest or weed control at 125 g/ha [%]
1,CCc1cc(C)cc(CC)c1C1=C(OS(C)(=O)=O)CC2(CCOCC2)CC1=O [Compound P24],0
2,CCc1cc(C)cc(CC)c1C1=C(OC(=O)Oc2ccccc2)CC2(CCOCC2)CC1=O [Compound P18],90
3,CCc1cc(C)cc(CC)c1C1=C(OC(=O)CC2CCCC2)CC2(CCOCC2)CC1=O [Compound P11],90
4,CCc1cc(C)cc(CC)c1C1=C(OC(C)=O)CC2(CCOCC2)CC1=O [Compound P1],30
5,CCc1cc(C)cc(CC)c1C1=C(OC(=O)Cc2ccc(F)cc2)CC2(CCOCC2)CC1=O [Compound P7],100
6,CCc1cc(C)cc(CC)c1C1=C(O)CC(CC(C)[S+]([O-])C(C)C)CC1=O (stereo not drawn) [Compound T55],80

# Test system: Digitaria sanguinalis (DIGSA)
# Assay: Pre-emergence herbicidal activity, glasshouse pot test
# Type: in vivo
# Details: Digitaria sanguinalis, 480 h, rate 500 g/ha, evaluated after 20 days, read-out: Pre-emergence activity, DIGSA (100=total damage to plant; 0=no damage to plant)
# Summary of the method: (§2)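 Pre-emergence application: sprayed one day after seeding into pots of sterilised standard soil. After 20 days' growth in a greenhouse, percent damage was scored visually, 0 meaning unharmed and 100 total damage.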
row,SMILES,pest or weed control at 500 g/ha [%]
1,CCc1cc(C)cc(CC)c1C1=C(OS(C)(=O)=O)CC2(CCOCC2)CC1=O [Compound P24],70
2,CCc1cc(C)cc(CC)c1C1=C(OC(=O)Oc2ccccc2)CC2(CCOCC2)CC1=O [Compound P18],100
3,CCc1cc(C)cc(CC)c1C1=C(OC(=O)CC2CCCC2)CC2(CCOCC2)CC1=O [Compound P11],100
4,CCc1cc(C)cc(CC)c1C1=C(OC(C)=O)CC2(CCOCC2)CC1=O [Compound P1],100
5,CCc1cc(C)cc(CC)c1C1=C(OC(=O)Cc2ccc(F)cc2)CC2(CCOCC2)CC1=O [Compound P7],100
6,CCc1cc(C)cc(CC)c1C1=C(O)CC(CC(C)[S+]([O-])C(C)C)CC1=O (stereo not drawn) [Compound T55],100

# Test system: Setaria faberi (SETFA)
# Assay: as above
# Type: in vivo
# Details: Setaria faberi, 480 h, rate 500 g/ha, evaluated after 20 days, read-out: Pre-emergence activity, SETFA (100=total damage to plant; 0=no damage to plant)
# Summary of the method: as §2
row,SMILES,pest or weed control at 500 g/ha [%]
1,CCc1cc(C)cc(CC)c1C1=C(OS(C)(=O)=O)CC2(CCOCC2)CC1=O [Compound P24],90
2,CCc1cc(C)cc(CC)c1C1=C(OC(=O)Oc2ccccc2)CC2(CCOCC2)CC1=O [Compound P18],100
3,CCc1cc(C)cc(CC)c1C1=C(OC(=O)CC2CCCC2)CC2(CCOCC2)CC1=O [Compound P11],100
4,CCc1cc(C)cc(CC)c1C1=C(OC(C)=O)CC2(CCOCC2)CC1=O [Compound P1],100
5,CCc1cc(C)cc(CC)c1C1=C(OC(=O)Cc2ccc(F)cc2)CC2(CCOCC2)CC1=O [Compound P7],100
6,CCc1cc(C)cc(CC)c1C1=C(O)CC(CC(C)[S+]([O-])C(C)C)CC1=O (stereo not drawn) [Compound T55],90

# Test system: Avena fatua (AVEFA)
# Assay: as above
# Type: in vivo
# Details: Avena fatua, 480 h, rate 500 g/ha, evaluated after 20 days, read-out: Pre-emergence activity, AVEFA (100=total damage to plant; 0=no damage to plant)
# Summary of the method: as §2
row,SMILES,pest or weed control at 500 g/ha [%]
1,CCc1cc(C)cc(CC)c1C1=C(OS(C)(=O)=O)CC2(CCOCC2)CC1=O [Compound P24],80
2,CCc1cc(C)cc(CC)c1C1=C(OC(=O)Oc2ccccc2)CC2(CCOCC2)CC1=O [Compound P18],100
3,CCc1cc(C)cc(CC)c1C1=C(OC(=O)CC2CCCC2)CC2(CCOCC2)CC1=O [Compound P11],90
4,CCc1cc(C)cc(CC)c1C1=C(OC(C)=O)CC2(CCOCC2)CC1=O [Compound P1],100
5,CCc1cc(C)cc(CC)c1C1=C(OC(=O)Cc2ccc(F)cc2)CC2(CCOCC2)CC1=O [Compound P7],80
6,CCc1cc(C)cc(CC)c1C1=C(O)CC(CC(C)[S+]([O-])C(C)C)CC1=O (stereo not drawn) [Compound T55],90

# Test system: Echinochloa crus-galli (ECHCG)
# Assay: as above
# Type: in vivo
# Details: Echinochloa crus-galli, 480 h, rate 500 g/ha, evaluated after 20 days, read-out: Pre-emergence activity, ECHCG (100=total damage to plant; 0=no damage to plant)
# Summary of the method: as §2
row,SMILES,pest or weed control at 500 g/ha [%]
1,CCc1cc(C)cc(CC)c1C1=C(OS(C)(=O)=O)CC2(CCOCC2)CC1=O [Compound P24],50
2,CCc1cc(C)cc(CC)c1C1=C(OC(=O)Oc2ccccc2)CC2(CCOCC2)CC1=O [Compound P18],80
3,CCc1cc(C)cc(CC)c1C1=C(OC(=O)CC2CCCC2)CC2(CCOCC2)CC1=O [Compound P11],90
4,CCc1cc(C)cc(CC)c1C1=C(OC(C)=O)CC2(CCOCC2)CC1=O [Compound P1],100
5,CCc1cc(C)cc(CC)c1C1=C(OC(=O)Cc2ccc(F)cc2)CC2(CCOCC2)CC1=O [Compound P7],70
6,CCc1cc(C)cc(CC)c1C1=C(O)CC(CC(C)[S+]([O-])C(C)C)CC1=O (stereo not drawn) [Compound T55],100

# Test system: Alopecurus myosuroides (ALOMY)
# Assay: as above
# Type: in vivo
# Details: Alopecurus myosuroides, 480 h, rate 500 g/ha, evaluated after 20 days, read-out: Pre-emergence activity, ALOMY (100=total damage to plant; 0=no damage to plant)
# Summary of the method: as §2
row,SMILES,pest or weed control at 500 g/ha [%]
1,CCc1cc(C)cc(CC)c1C1=C(OS(C)(=O)=O)CC2(CCOCC2)CC1=O [Compound P24],80
2,CCc1cc(C)cc(CC)c1C1=C(OC(=O)Oc2ccccc2)CC2(CCOCC2)CC1=O [Compound P18],100
3,CCc1cc(C)cc(CC)c1C1=C(OC(=O)CC2CCCC2)CC2(CCOCC2)CC1=O [Compound P11],100
4,CCc1cc(C)cc(CC)c1C1=C(OC(C)=O)CC2(CCOCC2)CC1=O [Compound P1],100
5,CCc1cc(C)cc(CC)c1C1=C(OC(=O)Cc2ccc(F)cc2)CC2(CCOCC2)CC1=O [Compound P7],40
6,CCc1cc(C)cc(CC)c1C1=C(O)CC(CC(C)[S+]([O-])C(C)C)CC1=O (stereo not drawn) [Compound T55],100

# Test system: Lolium perenne (LOLPE)
# Assay: as above
# Type: in vivo
# Details: Lolium perenne, 480 h, rate 500 g/ha, evaluated after 20 days, read-out: Pre-emergence activity, LOLPE (100=total damage to plant; 0=no damage to plant)
# Summary of the method: as §2
row,SMILES,pest or weed control at 500 g/ha [%]
1,CCc1cc(C)cc(CC)c1C1=C(OS(C)(=O)=O)CC2(CCOCC2)CC1=O [Compound P24],80
2,CCc1cc(C)cc(CC)c1C1=C(OC(=O)Oc2ccccc2)CC2(CCOCC2)CC1=O [Compound P18],100
3,CCc1cc(C)cc(CC)c1C1=C(OC(=O)CC2CCCC2)CC2(CCOCC2)CC1=O [Compound P11],90
4,CCc1cc(C)cc(CC)c1C1=C(OC(C)=O)CC2(CCOCC2)CC1=O [Compound P1],100
5,CCc1cc(C)cc(CC)c1C1=C(OC(=O)Cc2ccc(F)cc2)CC2(CCOCC2)CC1=O [Compound P7],100
6,CCc1cc(C)cc(CC)c1C1=C(O)CC(CC(C)[S+]([O-])C(C)C)CC1=O (stereo not drawn) [Compound T55],100
